Measurements published in patent US8802597B2, “Herbicidal pyrimidines” (E I du Pont de Nemours and Company, priority 2003, dated 2014).
Read-outs that look alike come from different tables or passages of the source.

How the values were obtained:
Format in all cases: in vivo
wild oat (Avena fatua) = assay: Test B postemergence; details: Avena fatua, post-emergence
Outline: (§1)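 Compounds in non-phytotoxic solvent with surfactant applied preemergence to planted seeds or postemergence to plants 2 to 18 cm tall (1- to 4-leaf stage). Greenhouse 13 to 15 days, then visual rating against controls on a 0 to 100 scale (100 = complete control).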

[1] = system: blackgrass (Alopecurus myosuroides); assay: Test B postemergence; details: Alopecurus myosuroides, post-emergence
Outline: as §1

[2] = system: barnyardgrass (Echinochloa crus-galli); assay: Test B pre/postemergence; details: Echinochloa crus-galli; for pest or weed control at 125 g/ha: 125 g ai/ha; for pest or weed control at 500 g/ha: 500 g ai/ha
Outline: as §1

[3] = system: Surinam grass (Brachiaria decumbens); assay: Test B pre/postemergence; details: Urochloa decumbens; for pest or weed control at 125 g/ha: 125 g ai/ha; for pest or weed control at 500 g/ha: 500 g ai/ha
Outline: as §1

[4] = system: giant foxtail (Setaria faberii); assay: Test B pre/postemergence; details: Setaria faberi; for pest or weed control at 125 g/ha: 125 g ai/ha; for pest or weed control at 500 g/ha: 500 g ai/ha
Outline: as §1

corn (Zea mays) = assay: Test B pre/postemergence; details: Zea mays
Outline: as §1

[5] = system: velvetleaf (Abutilon theophrasti); assay: Test B pre/postemergence; details: Abutilon theophrasti; for pest or weed control at 125 g/ha: 125 g ai/ha; for pest or weed control at 500 g/ha: 500 g ai/ha
Outline: as §1

[6] = system: morningglory (Ipomoea coccinea); assay: Test B pre/postemergence; details: Ipomoea; for pest or weed control at 125 g/ha: 125 g ai/ha; for pest or weed control at 500 g/ha: 500 g ai/ha
Outline: as §1

[7] = system: crabgrass (Digitaria sanguinalis); assay: Test B pre/postemergence; details: Digitaria sanguinalis; for pest or weed control at 125 g/ha: 125 g ai/ha; for pest or weed control at 500 g/ha: 500 g ai/ha
Outline: as §1

[8] = system: cocklebur (Xanthium strumarium); assay: Test B pre/postemergence; details: Xanthium strumarium; for pest or weed control at 125 g/ha: 125 g ai/ha; for pest or weed control at 500 g/ha: 500 g ai/ha
Outline: as §1

[9] = system: lambsquarters (Chenopodium album); assay: Test B pre/postemergence; details: Chenopodium album; for pest or weed control at 125 g/ha: 125 g ai/ha; for pest or weed control at 500 g/ha: 500 g ai/ha
Outline: as §1

[10] = system: wheat (Triticum aestivum); assay: Test B pre/postemergence; details: Triticum aestivum; for plant injury at 125 g/ha: 125 g ai/ha; for plant injury at 500 g/ha: 500 g ai/ha
Outline: as §1

[11] = system: pigweed (Amaranthus retroflexus); assay: Test B pre/postemergence; details: Amaranthus retroflexus; for pest or weed control at 125 g/ha: 125 g ai/ha; for pest or weed control at 500 g/ha: 500 g ai/ha
Outline: as §1

[12] = system: barnyardgrass (Echinochloa crus-galli); assay: Test B flooded paddy test; details: Echinochloa crus-galli, Flood, 1000 g ai/ha; scale 0 (no effect) to 100 (complete control); read-out: Plant response rating, Barnyardgrass
Outline: (§2)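 Visual injury scoring (0 = no effect, 100 = complete control) versus controls made 13 to 15 days after treatment in the greenhouse. Test species were grown in flooded paddy to the 2-leaf stage: rice, barnyardgrass, umbrella sedge, duck salad.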

rice (Oryza sativa) = assay: Test B flooded paddy test; details: Oryza sativa, Flood, 1000 g ai/ha; scale 0 to 100; read-out: Plant response rating, Rice
Outline: as §2

[13] = system: umbrella sedge (Cyperus difformis); assay: Test B flooded paddy test; details: Cyperus difformis, Flood, 1000 g ai/ha; scale 0 to 100; read-out: Plant response rating, Sedge, Umbrella
Outline: as §2

[14] = system: duck salad (Heteranthera limosa); assay: Test B flooded paddy test; details: Heteranthera limosa, Flood, 1000 g ai/ha; scale 0 to 100; read-out: Plant response rating, Ducksalad
Outline: as §2

## CCOC(=O)c1nc(C2CC2)nc(N)c1F [Compound 30]
Wild oat (Avena fatua); 125 g ai/ha, scale 0 to 100 (0 no effect, 100 complete control), read-out: Oat, Wild plant response rating
  pest or weed control at 125 g/ha: 60%
Wild oat (Avena fatua); 500 g ai/ha, scale 0 to 100, read-out: Plant response rating, Oat, Wild
  pest or weed control at 500 g/ha: 70%
[1]; 125 g ai/ha, scale 0 to 100 (0 no effect, 100 complete control), read-out: Blackgrass plant response rating
  pest or weed control at 125 g/ha: 60%
[1]; 500 g ai/ha, scale 0 to 100, read-out: Plant response rating, Blackgrass
  pest or weed control at 500 g/ha: 70%
[2]; post-emergence, Postemergence, scale 0 to 100 (0 no effect, 100 complete control), read-out: Barnyardgrass plant response rating
  pest or weed control at 125 g/ha: 0%
[2]; post-emergence, Postemergence, scale 0 to 100, read-out: Plant response rating, Barnyardgrass
  pest or weed control at 500 g/ha: 80%
[2]; pre-emergence, Preemergence, scale 0 to 100 (0 no effect, 100 complete control), read-out: Plant response rating, Barnyardgrass
  pest or weed control at 125 g/ha: 10%
[2]; pre-emergence, Preemergence, scale 0 to 100 (0 no effect, 100 complete control), read-out: Barnyardgrass plant response rating
  pest or weed control at 500 g/ha: 40%
[3]; post-emergence, Postemergence, scale 0 to 100 (0 no effect, 100 complete control), read-out: Surinam Grass plant response rating
  pest or weed control at 125 g/ha: 10%
[3]; post-emergence, Postemergence, scale 0 to 100, read-out: Plant response rating, Surinam Grass
  pest or weed control at 500 g/ha: 80%
[3]; pre-emergence, Preemergence, scale 0 to 100 (0 no effect, 100 complete control), read-out: Plant response rating, Surinam Grass
  pest or weed control at 125 g/ha: 0%
[3]; pre-emergence, Preemergence, scale 0 to 100 (0 no effect, 100 complete control), read-out: Surinam Grass plant response rating
  pest or weed control at 500 g/ha: 80%
[4]; post-emergence, Postemergence, scale 0 to 100 (0 no effect, 100 complete control), read-out: Foxtail, Giant plant response rating
  pest or weed control at 125 g/ha: 0%
[4]; post-emergence, Postemergence, scale 0 to 100, read-out: Plant response rating, Foxtail, Giant
  pest or weed control at 500 g/ha: 90%
[4]; pre-emergence, Preemergence, scale 0 to 100 (0 no effect, 100 complete control), read-out: Plant response rating, Foxtail, Giant
  pest or weed control at 125 g/ha: 10%
[4]; pre-emergence, Preemergence, scale 0 to 100 (0 no effect, 100 complete control), read-out: Foxtail, Giant plant response rating
  pest or weed control at 500 g/ha: 80%
Corn (Zea mays); post-emergence, Postemergence, 125 g ai/ha, scale 0 to 100 (0 no effect, 100 complete control), read-out: Corn plant response rating
  plant injury at 125 g/ha: 0%
Corn (Zea mays); post-emergence, Postemergence, 500 g ai/ha, scale 0 to 100
  Corn plant response rating (crop injury, 0 = no effect, 100 = complete kill) at 500 g/ha: 30%
Corn (Zea mays); pre-emergence, Preemergence, 125 g ai/ha, scale 0 to 100 (0 no effect, 100 complete control)
  Corn plant response rating (crop injury, 0 = no effect, 100 = complete kill) at 125 g/ha: 10%
Corn (Zea mays); pre-emergence, Preemergence, 500 g ai/ha, scale 0 to 100 (0 no effect, 100 complete control), read-out: Corn plant response rating
  plant injury at 500 g/ha: 80%
[5]; post-emergence, Postemergence, scale 0 to 100 (0 no effect, 100 complete control), read-out: Velvetleaf plant response rating
  pest or weed control at 125 g/ha: 50%
[5]; post-emergence, Postemergence, scale 0 to 100, read-out: Plant response rating, Velvetleaf
  pest or weed control at 500 g/ha: 90%
[5]; pre-emergence, Preemergence, scale 0 to 100 (0 no effect, 100 complete control), read-out: Plant response rating, Velvetleaf
  pest or weed control at 125 g/ha: 10%
[5]; pre-emergence, Preemergence, scale 0 to 100 (0 no effect, 100 complete control), read-out: Velvetleaf plant response rating
  pest or weed control at 500 g/ha: 80%
[6]; post-emergence, Postemergence, scale 0 to 100 (0 no effect, 100 complete control), read-out: Morningglory plant response rating
  pest or weed control at 125 g/ha: 90%
[6]; post-emergence, Postemergence, scale 0 to 100, read-out: Plant response rating, Morningglory
  pest or weed control at 500 g/ha: 100%
[6]; pre-emergence, Preemergence, scale 0 to 100 (0 no effect, 100 complete control), read-out: Plant response rating, Morningglory
  pest or weed control at 125 g/ha: 90%
[6]; pre-emergence, Preemergence, scale 0 to 100 (0 no effect, 100 complete control), read-out: Morningglory plant response rating
  pest or weed control at 500 g/ha: 100%
[7]; post-emergence, Postemergence, scale 0 to 100 (0 no effect, 100 complete control), read-out: Crabgrass plant response rating
  pest or weed control at 125 g/ha: 30%
[7]; post-emergence, Postemergence, scale 0 to 100, read-out: Plant response rating, Crabgrass
  pest or weed control at 500 g/ha: 90%
[7]; pre-emergence, Preemergence, scale 0 to 100 (0 no effect, 100 complete control), read-out: Plant response rating, Crabgrass
  pest or weed control at 125 g/ha: 50%
[7]; pre-emergence, Preemergence, scale 0 to 100 (0 no effect, 100 complete control), read-out: Crabgrass plant response rating
  pest or weed control at 500 g/ha: 90%
[8]; post-emergence, Postemergence, scale 0 to 100 (0 no effect, 100 complete control), read-out: Cocklebur plant response rating
  pest or weed control at 125 g/ha: 100%
[8]; post-emergence, Postemergence, scale 0 to 100, read-out: Plant response rating, Cocklebur
  pest or weed control at 500 g/ha: 100%
[8]; pre-emergence, Preemergence, scale 0 to 100 (0 no effect, 100 complete control), read-out: Plant response rating, Cocklebur
  pest or weed control at 125 g/ha: 60%
[8]; pre-emergence, Preemergence, scale 0 to 100 (0 no effect, 100 complete control), read-out: Cocklebur plant response rating
  pest or weed control at 500 g/ha: 100%
[9]; post-emergence, Postemergence, scale 0 to 100 (0 no effect, 100 complete control), read-out: Lambsquarters plant response rating
  pest or weed control at 125 g/ha: 90%
[9]; post-emergence, Postemergence, scale 0 to 100, read-out: Plant response rating, Lambsquarters
  pest or weed control at 500 g/ha: 100%
[9]; pre-emergence, Preemergence, scale 0 to 100 (0 no effect, 100 complete control), read-out: Plant response rating, Lambsquarters
  pest or weed control at 125 g/ha: 80%
[9]; pre-emergence, Preemergence, scale 0 to 100 (0 no effect, 100 complete control), read-out: Lambsquarters plant response rating
  pest or weed control at 500 g/ha: 90%
[10]; post-emergence, Postemergence, scale 0 to 100 (0 no effect, 100 complete control), read-out: Wheat plant response rating
  plant injury at 125 g/ha: 50%
[10]; post-emergence, Postemergence, scale 0 to 100, read-out: Plant response rating, Wheat
  plant injury at 500 g/ha: 60%
[10]; pre-emergence, Preemergence, scale 0 to 100 (0 no effect, 100 complete control), read-out: Plant response rating, Wheat
  plant injury at 125 g/ha: 30%
[10]; pre-emergence, Preemergence, scale 0 to 100 (0 no effect, 100 complete control), read-out: Wheat plant response rating
  plant injury at 500 g/ha: 60%
[11]; post-emergence, Postemergence, scale 0 to 100 (0 no effect, 100 complete control), read-out: Pigweed plant response rating
  pest or weed control at 125 g/ha: 90%
[11]; post-emergence, Postemergence, scale 0 to 100, read-out: Plant response rating, Pigweed
  pest or weed control at 500 g/ha: 100%
[11]; pre-emergence, Preemergence, scale 0 to 100 (0 no effect, 100 complete control), read-out: Plant response rating, Pigweed
  pest or weed control at 125 g/ha: 50%
[11]; pre-emergence, Preemergence, scale 0 to 100 (0 no effect, 100 complete control), read-out: Pigweed plant response rating
  pest or weed control at 500 g/ha: 90%
[12]
  pest or weed control at 1000 g/ha: 0%
Rice (Oryza sativa)
  plant injury at 1000 g/ha: 0%
[13]
  pest or weed control at 1000 g/ha: 0%
[14]
  pest or weed control at 1000 g/ha: 0%
